Reference: patent US20260224758A1, “ALPHA-SYNUCLEIN BINDERS AND METHODS OF USE” (Merck Sharp & Dohme LLC, priority 2023, published 2026)
Like-named read-outs stand apart in the source and are kept apart here.

Key:
[1] = biological target: T1, triton-extracted alpha-synuclein from PD Tissue (Homo sapiens, UniProt P37840); test: Alpha-synuclein tissue homogenate binding assay (Assay 1), displacement of [^3H]-1000; conditions: for Selectivity ratio (Assay 2/Assay 1): Aβ Tissue Ki / α-synuclein Tissue Ki; for Ki: read-out: α-synuclein Tissue Ki (Assay 1)
T1 construct: tissue Analytic Biological Services Inc; host or cells: human PD temporal cortex grey matter, Triton X-100 insoluble pellet

[2] = biological target: aggregated beta amyloid in AD tissue (Homo sapiens, UniProt P05067); test: Competitive radioligand binding to pathological aggregated beta amyloid in AD tissue (Assay 2), displacement of [^3H]-105; conditions: Aβ-rich AD frontal cortex homogenate, [^3H]-105, Kd 11.0 nM
aggregated beta amyloid in AD tissue, sequence (P05067 672-711 limits assumed): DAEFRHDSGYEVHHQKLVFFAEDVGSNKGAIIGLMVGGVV

[3] = insoluble fraction of PD brain homogenate, [^3H]-1000 3.0 nM, Kd 0.90 nM

| Selectivity ratio (Assay 2/Assay 1) [1] | Ki [1] | Ki [2] | Ki [1, 3] | Structure (SMILES) |
| --- | --- | --- | --- | --- |
| 2857 | 0.42 nM | ≥ 1200 nM | – | Cc1cn(-c2ccc(/C=C/c3cnc(N4CCN(c5ncccn5)[C@@H](COCCF)C4)nc3)cn2)cn1 [Example 40, (R,E)-2-(3-((2-fluoroethoxy)methyl)-4-(pyrimidin-2-yl)piperazin-1-yl)-5-(2-(6-(4-methyl-1H-imidazol-1-yl)pyridin-3-yl)vinyl)pyrimidine] |
| 1500 | – | ≥ 1200 nM | 0.8 nM | FCCOC[C@H]1CN(c2ncc(/C=C/c3ccc(-c4cnco4)nc3)cn2)CCN1c1ncncn1 [Example 41, (R,E)-5-(5-(2-(2-(3-((2-fluoroethoxy)methyl)-4-(1,3,5-triazin-2-yl)piperazin-1-yl)pyrimidin-5-yl)vinyl)pyridin-2-yl)oxazole] |
| 1538 | – | ≥ 1200 nM | 0.78 nM | FCCOC[C@H]1CN(c2ncc(/C=C/c3ccc(-c4cnco4)nc3)cn2)CCN1c1ccncn1 [Example 42, (R,E)-5-(5-(2-(2-(3-((2-fluoroethoxy)methyl)-4-(pyrimidin-4-yl)piperazin-1-yl)pyrimidin-5-yl)vinyl)pyridin-2-yl)oxazole] |
| 2105 | – | ≥ 1200 nM | 0.57 nM | Cn1cc(-c2ncc(C#Cc3cnc(N4CCN(c5ncncn5)[C@@H](COCCF)C4)nc3)cn2)cn1 [Example 44, (R)-2-(2-((2-fluoroethoxy)methyl)-4-(5-((2-(1-methyl-1H-pyrazol-4-yl)pyrimidin-5-yl)ethynyl)pyrimidin-2-yl)piperazin-1-yl)-1,3,5-triazine] |
| 589 | – | ≥ 1200 nM | 2.04 nM | COC[C@H]1CN(c2ncc(C#Cc3ccc(-n4cnnc4)nc3)cn2)CCN1c1cc(F)ncn1 [Example 45, (R)-5-((6-(4H-1,2,4-triazol-4-yl)pyridin-3-yl)ethynyl)-2-(4-(6-fluoropyrimidin-4-yl)-3-(methoxymethyl)piperazin-1-yl)pyrimidine] |
| 929 | – | ≥ 1200 nM | 1.29 nM | COC[C@H]1CN(c2ncc(C#Cc3cnc(-c4cnn(CCF)c4)nc3)cn2)CCN1c1ncncn1 [Example 46, (R)-2-(4-(5-((2-(1-(2-fluoroethyl)-1H-pyrazol-4-yl)pyrimidin-5-yl)ethynyl)pyrimidin-2-yl)-2-(methoxymethyl)piperazin-1-yl)-1,3,5-triazine] |
| 2673 | – | ≥ 1200 nM | 0.449 nM | Cn1cc(-c2ccc(C#Cc3cnc(N4CCN(c5ncncn5)[C@@H](COCCF)C4)nc3)cn2)cn1 [Example 50, (R)-2-(2-((2-fluoroethoxy)methyl)-4-(5-((6-(1-methyl-1H-pyrazol-4-yl)pyridin-3-yl)ethynyl)pyrimidin-2-yl)piperazin-1-yl)-1,3,5-triazine] |
| 654 | – | ≥ 1200 nM | 1.83 nM | Cn1cc(-c2ncc(C#Cc3cnc(N4CCN(c5ncccn5)[C@@H](COCCF)C4)nc3)cn2)cn1 [Example 51, (R)-2-(3-((2-fluoroethoxy)methyl)-4-(pyrimidin-2-yl)piperazin-1-yl)-5-((2-(1-methyl-1H-pyrazol-4-yl)pyrimidin-5-yl)ethynyl)pyrimidine] |
| 857 | 1.4 nM | ≥ 1200 nM | – | Cn1cc(-c2ncc(C#Cc3cnc(N4CCN(c5ncccn5)[C@@H](COCCOCCF)C4)nc3)cn2)cn1 [Example 52, (R)-2-(3-((2-(2-fluoroethoxy)ethoxy)methyl)-4-(pyrimidin-2-yl)piperazin-1-yl)-5-((2-(1-methyl-1H-pyrazol-4-yl)pyrimidin-5-yl)ethynyl)pyrimidine] |
| 7 | – | 32 nM | 4.41 nM | COC[C@H]1CN(c2cnc(C#Cc3ccc(-n4ccnc4)nc3)c(F)n2)CCN1c1ncccn1 [Example 57, (R)-2-(4-(5-((6-(1H-imidazol-1-yl)pyridin-3-yl)ethynyl)-6-fluoropyrazin-2-yl)-2-(methoxymethyl)piperazin-1-yl)pyrimidine] |
| 237 | – | ≥ 1200 nM | 5.06 nM | COC[C@H]1CN(c2ncc(C#Cc3ccc(-n4cnnc4F)nc3)cn2)CCN1c1ncccn1 [Example 59, (R)-5-((6-(3-fluoro-4H-1,2,4-triazol-4-yl)pyridin-3-yl)ethynyl)-2-(3-(methoxymethyl)-4-(pyrimidin-2-yl)piperazin-1-yl)pyrimidine] |
| 538 | – | ≥ 1200 nM | 2.23 nM | COC[C@H]1CN(c2ncc(C#Cc3ccc(-n4ccnc4)nc3)cn2)CCN1c1nccc(F)n1 [Example 60, (R)-2-(4-(5-((6-(1H-imidazol-1-yl)pyridin-3-yl)ethynyl)pyrimidin-2-yl)-2-(methoxymethyl)piperazin-1-yl)-4-fluoropyrimidine] |
| 805 | – | ≥ 1200 nM | 1.49 nM | COC[C@H]1CN(c2ncc(C#Cc3ccc(-n4ccnc4)nc3)cn2)CCN1c1ccnc(F)n1 [Example 61, (R)-4-(4-(5-((6-(1H-imidazol-1-yl)pyridin-3-yl)ethynyl)pyrimidin-2-yl)-2-(methoxymethyl)piperazin-1-yl)-2-fluoropyrimidine] |
| 811 | – | ≥ 1200 nM | 1.48 nM | FCCOC[C@@H]1CN(c2ncc(C#Cc3ccc(-c4cnco4)nc3)cn2)CCN1c1ncncn1 [Example 62, (S)-5-(5-((2-(3-((2-fluoroethoxy)methyl)-4-(1,3,5-triazin-2-yl)piperazin-1-yl)pyrimidin-5-yl)ethynyl)pyridin-2-yl)oxazole] |
| 1314 | – | ≥ 1200 nM | 0.913 nM | OCC(F)COC[C@H]1CN(c2ncc(C#Cc3ccc(-n4ccnc4)nc3)cn2)CCN1c1ncccn1 (stereo partly drawn) [Example 63, 3-(((R)-4-(5-((6-(1H-imidazol-1-yl)pyridin-3-yl)ethynyl)pyrimidin-2-yl)-1-(pyrimidin-2-yl)piperazin-2-yl)methoxy)-2-fluoropropan-1-ol] |
| 442 | – | ≥ 1200 nM | 2.71 nM | COC[C@H]1CN(c2ncc(C#Cc3ccc(-c4cnco4)nc3)cn2)CCN1c1ccnc(F)c1 [Example 64, (R)-5-(5-((2-(4-(2-fluoropyridin-4-yl)-3-(methoxymethyl)piperazin-1-yl)pyrimidin-5-yl)ethynyl)pyridin-2-yl)oxazole] |
| 1093 | – | ≥ 1200 nM | 1.1 nM | CNCC1CN(c2cc(F)ncn2)CCN1c1ncc(C#Cc2ccc(-c3cnco3)nc2)cn1 (stereo not drawn) [Example 65, 1-(4-(6-fluoropyrimidin-4-yl)-1-(5-((6-(oxazol-5-yl)pyridin-3-yl)ethynyl)pyrimidin-2-yl)piperazin-2-yl)-N-methylmethanamine] |
| 706 | – | ≥ 1200 nM | 1.7 nM | COC[C@H]1CN(c2ncc(C#Cc3ccc(-c4cnco4)nc3)cn2)CCN1c1ncc(OCCF)cn1 [Example 66, (R)-5-(5-((2-(4-(5-(2-fluoroethoxy)pyrimidin-2-yl)-3-(methoxymethyl)piperazin-1-yl)pyrimidin-5-yl)ethynyl)pyridin-2-yl)oxazole] |
| 798 | – | ≥ 1200 nM | 1.5 nM | OC(CF)COC[C@H]1CN(c2ncc(C#Cc3ccc(-c4cnco4)nc3)cn2)CCN1c1ncncn1 (stereo partly drawn) [Example 67, 1-fluoro-3-(((R)-4-(5-((6-(oxazol-5-yl)pyridin-3-yl)ethynyl)pyrimidin-2-yl)-1-(1,3,5-triazin-2-yl)piperazin-2-yl)methoxy)propan-2-ol] |
| 469 | – | ≥ 1200 nM | 2.56 nM | COC[C@H]1CN(c2ncc(C#Cc3ccc(N4CC(F)C4)nc3)cn2)CCN1c1ncccn1 [Example 68, (R)-5-((6-(3-fluoroazetidin-1-yl)pyridin-3-yl)ethynyl)-2-(3-(methoxymethyl)-4-(pyrimidin-2-yl)piperazin-1-yl)pyrimidine] |
| 183 | – | ≥ 1200 nM | 6.57 nM | COC[C@H]1CN(c2ncc(C#Cc3ccc(-n4ccnc4)nc3)cn2)CCN1c1cncc(F)n1 [Example 69, (R)-5-((6-(1H-imidazol-1-yl)pyridin-3-yl)ethynyl)-2-(4-(6-fluoropyrazin-2-yl)-3-(methoxymethyl)piperazin-1-yl)pyrimidine] |
| 472 | – | ≥ 1200 nM | 2.54 nM | FCCOC[C@H]1CN(c2ncc(C#Cc3ccc(-n4cnnc4)nc3)cn2)CCN1c1ncncn1 [Example 70, (R)-2-(4-(5-((6-(4H-1,2,4-triazol-4-yl)pyridin-3-yl)ethynyl)pyrimidin-2-yl)-2-((2-fluoroethoxy)methyl)piperazin-1-yl)-1,3,5-triazine] |
| 293 | – | ≥ 1200 nM | 4.09 nM | FCCOC[C@H]1CN(c2ncc(C#Cc3ccc(-n4cnnc4)nc3)cn2)CCN1c1ncccn1 [Example 71, (R)-5-((6-(4H-1,2,4-triazol-4-yl)pyridin-3-yl)ethynyl)-2-(3-((2-fluoroethoxy)methyl)-4-(pyrimidin-2-yl)piperazin-1-yl)pyrimidine] |
| 617 | – | ≥ 1200 nM | 1.94 nM | COC[C@H]1CN(c2ncc(C#Cc3ccc(N4CC[C@H](F)C4)nc3)cn2)CCN1c1ncccn1 [Example 72, 5-((6-((S)-3-fluoropyrrolidin-1-yl)pyridin-3-yl)ethynyl)-2-((R)-3-(methoxymethyl)-4-(pyrimidin-2-yl)piperazin-1-yl)pyrimidine] |
| 618 | – | ≥ 1200 nM | 1.94 nM | FCCCOC[C@H]1CN(c2ncc(C#Cc3ccc(-c4cnco4)nc3)cn2)CCN1c1ncncn1 [Example 74, (R)-5-(5-((2-(3-((3-fluoropropoxy)methyl)-4-(1,3,5-triazin-2-yl)piperazin-1-yl)pyrimidin-5-yl)ethynyl)pyridin-2-yl)oxazole] |
